Earlier results on four molecules are cited in patent US20100003364A1, “REDUCED-HANGOVER ALCOHOLIC BEVERAGE COMPRISING TURMERIC” (priority 2006, published 2010).

For the series the following is noted: biological activities listed for compounds from Curcuma longa L.
`CC(C)=CC(=O)CC(C)c1ccc(C)cc1` (stereo not shown) [Ar-turmerone]: the Activity result is on record as “snakebite”. For the molecule `COc1cc(/C=C/C(=O)CC(=O)/C=C/c2ccc([O-])c(OC)c2)ccc1[O-].[Na+].[Na+]` [Sodium curcuminate], the Activity entry is “anti-inflammatory”.

In the case of Methylcurcumin, the Activity result is on record as “L. amazonensis”. In the case of `O=C(C=Cc1ccc(O)cc1)CC(=O)C=Cc1ccc(O)cc1` [Bisdemethoxy curcumin], the Activity result is “antioxidant”.
